Values joined by “and” are separate entries in the source; they are usually repeats but may differ in a detail not shown here. Equal values may be shown once. Toxic doses and inconclusive results are not listed. Cut-off read from the data, not from the text of the source: active = T/C of 150% or more; inactive = T/C below 125%.
Tested on: L1210 leukemia ip in BDF1 mice, survival T/C
Experiment: NCI In Vivo Anticancer Drug Screen. Data for tumor model L1210 Leukemia (intraperitoneal) in B6D2F1 (BDF1) mice
Details: endpoint: mean survival time, higher = longer survival
Outline: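 Ratio derived from survival: compound-dosed mice over vehicle-dosed mice, all bearing a transplantable tumor.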

[1] = dose: 100.0 mg/kg/injection, schedule: Q01DX009 (ip), vehicle: saline
[2] = dose: 100.0 mg/kg/injection, schedule: Q04DX003 (ip), vehicle: saline
[3] = dose: 200.0 mg/kg/injection, schedule: Q01DX009 (ip), vehicle: saline
[4] = dose: 200.0 mg/kg/injection, schedule: Q04DX003 (ip), vehicle: saline
[5] = dose: 400.0 mg/kg/injection, schedule: Q01DX009 (ip), vehicle: saline
[6] = dose: 400.0 mg/kg/injection, schedule: Q04DX003 (ip), vehicle: saline
[7] = dose: 100.0 mg/kg/injection, schedule: Q01DX001 (ip), vehicle: Klucel (hydroxypropylcellulose) (HPC)
[8] = dose: 200.0 mg/kg/injection, schedule: Q01DX001 (ip), vehicle: Klucel (hydroxypropylcellulose) (HPC)
[9] = dose: 400.0 mg/kg/injection, schedule: Q01DX001 (ip), vehicle: Klucel (hydroxypropylcellulose) (HPC)
[10] = dose: 50.0 mg/kg/injection, schedule: Q01DX001 (ip), vehicle: saline
[11] = dose: 100.0 mg/kg/injection, schedule: Q01DX001 (ip), vehicle: saline
[12] = dose: 200.0 mg/kg/injection, schedule: Q01DX001 (ip), vehicle: saline
[13] = dose: 400.0 mg/kg/injection, schedule: Q01DX001 (ip), vehicle: saline

Measured: T/C

CCOC(=O)/C=C(\CC(=O)OCC)Nc1ccc(OC)cc1
inactive: dose: 50.0 mg/kg/injection, schedule: Q01DX009 (ip), vehicle: saline 89 % of control | [1] 91 % of control | dose: 100.0 mg/kg/injection, schedule: Q04DX003 (ip), vehicle: acetone 91 % of control | dose: 200.0 mg/kg/injection, schedule: Q04DX003 (ip), vehicle: acetone 100 % of control | dose: 400.0 mg/kg/injection, schedule: Q04DX003 (ip), vehicle: acetone 97 % of control

CC(C)C[As](=O)(O)CC(C)C
inactive: dose: 25.0 mg/kg/injection, schedule: Q04DX003 (ip), vehicle: saline 104 % of control | dose: 50.0 mg/kg/injection, schedule: Q04DX003 (ip), vehicle: saline 109 % of control

O=C(COc1ccc(Cl)cc1C(=O)O)NCc1ccc(Cl)cc1
inactive: dose: 100.0 mg/kg/injection, schedule: Q01DX009 (ip), vehicle: gum acacia 92 % of control | dose: 200.0 mg/kg/injection, schedule: Q01DX009 (ip), vehicle: gum acacia 106 % of control | dose: 400.0 mg/kg/injection, schedule: Q01DX009 (ip), vehicle: gum acacia 92 % of control

O=C(O)c1cc(Br)cc(I)c1Cl
inactive: dose: 100.0 mg/kg/injection, schedule: Q04DX002 (ip), vehicle: Klucel (hydroxypropylcellulose) (HPC) 102 % of control | dose: 200.0 mg/kg/injection, schedule: Q04DX002 (ip), vehicle: Klucel (hydroxypropylcellulose) (HPC) 94 % of control

CCCC/C=C(/C)C1(CC)C(=O)NC(=O)NC1=O
inactive: dose: 75.0 mg/kg/injection, schedule: Q01DX001 (ip), vehicle: saline 100 % of control and 98 % of control | dose: 150.0 mg/kg/injection, schedule: Q01DX001 (ip), vehicle: saline 93 % of control and 102 % of control

CC1NC1C (stereo unspecified)
inactive: dose: 45.0 mg/kg/injection, schedule: Q04DX003 (ip), vehicle: saline 102 % of control | dose: 90.0 mg/kg/injection, schedule: Q04DX003 (ip), vehicle: saline 98 % of control | [1] 103 % of control | [2] 108 % of control | dose: 180.0 mg/kg/injection, schedule: Q04DX003 (ip), vehicle: saline 107 % of control | [3] 108 % of control | [4] 114 % of control | [5] 103 % of control | [6] 119 % of control

C/C(=C\C(=O)O)CBr
inactive: dose: 50.0 mg/kg/injection, schedule: Q01DX009 (ip), vehicle: saline with Tween-80 93 % of control | dose: 100.0 mg/kg/injection, schedule: Q01DX009 (ip), vehicle: saline with Tween-80 86 % of control

COc1ccccc1OS(=O)(=O)c1ccc(COc2ccc([N+](=O)[O-])cc2Cl)cc1
inactive: [7] 93 % of control | [8] 98 % of control | [9] 96 % of control

CC(CC(=O)O)C(C(=O)O)C(=O)O (stereo unspecified)
inactive: dose: 25.0 mg/kg/injection, schedule: Q01DX009 (ip), vehicle: water 110 % of control | dose: 50.0 mg/kg/injection, schedule: Q01DX009 (ip), vehicle: water 108 % of control | dose: 100.0 mg/kg/injection, schedule: Q01DX009 (ip), vehicle: water 106 % of control | dose: 200.0 mg/kg/injection, schedule: Q01DX009 (ip), vehicle: water 101 % of control

CCn1c(N)cc(=O)[nH]c1=S
inactive: [10] 96 % of control | [11] 108 % of control | [12] 102 % of control | [13] 106 % of control

O=C1NC(=O)C2(CCN(c3ccccc3)CC2)C(=O)N1
inactive: [11] 94 % of control | [12] 96 % of control | [13] 96 % of control

COc1ccccc1OC(=O)c1ccccc1O
inactive: [11] 107 % of control | [2] 90 % of control | [12] 100 % of control | [4] 90 % of control | [13] 94 % of control | [6] 88 % of control

CON(C)c1nc(Cl)nc(Cl)n1
inactive: [10] 105 % of control | [7] 103 % of control | [11] 100 % of control | dose: 100.0 mg/kg/injection, schedule: Q01DX009 (ip), vehicle: Klucel (hydroxypropylcellulose) (HPC) 95 % of control | [8] 94 % of control | [12] 94 % of control | dose: 200.0 mg/kg/injection, schedule: Q01DX009 (ip), vehicle: Klucel (hydroxypropylcellulose) (HPC) 98 % of control | [9] 98 % of control | [13] 102 % of control | dose: 400.0 mg/kg/injection, schedule: Q01DX009 (ip), vehicle: Klucel (hydroxypropylcellulose) (HPC) 96 % of control

NC(=S)N/N=C/c1cc(Br)ccc1O
inactive: dose: 100.0 mg/kg/injection, schedule: Q01DX001 (ip), vehicle: carboxymethylcellulose (CMC) 100 % of control | dose: 200.0 mg/kg/injection, schedule: Q01DX001 (ip), vehicle: carboxymethylcellulose (CMC) 100 % of control | dose: 400.0 mg/kg/injection, schedule: Q01DX001 (ip), vehicle: carboxymethylcellulose (CMC) 105 % of control

C[n+]1cc(N)cc2ccccc21
inactive: dose: 10.0 mg/kg/injection, schedule: Q01DX001 (ip), vehicle: other 105 % of control | dose: 20.0 mg/kg/injection, schedule: Q01DX001 (ip), vehicle: other 105 % of control | dose: 40.0 mg/kg/injection, schedule: Q01DX001 (ip), vehicle: other 109 % of control

Oc1c(Br)ccc2c(O)c(Br)ccc12
inactive: dose: 100.0 mg/kg/injection, schedule: Q04DX003 (ip), vehicle: saline with Tween-80 87 % of control | dose: 118.0 mg/kg/injection, schedule: Q01DX009 (ip), vehicle: saline with Tween-80 107 % of control | dose: 200.0 mg/kg/injection, schedule: Q04DX003 (ip), vehicle: saline with Tween-80 92 % of control | dose: 235.0 mg/kg/injection, schedule: Q01DX009 (ip), vehicle: saline with Tween-80 103 % of control | dose: 400.0 mg/kg/injection, schedule: Q04DX003 (ip), vehicle: saline with Tween-80 95 % of control | dose: 470.0 mg/kg/injection, schedule: Q01DX009 (ip), vehicle: saline with Tween-80 103 % of control

CC(=O)NCCc1ccc(NCCCc2c(-c3ccccc3)nc(N)[nH]c2=O)cc1
inactive: [1] 97 % of control | [3] 95 % of control | [5] 101 % of control

C[CH2][Pb]([CH2]C)([CH2]C)[O]C(=O)COc1ccccc1
inactive: dose: 0.75 mg/kg/injection, schedule: Q01DX009 (ip), vehicle: Klucel (hydroxypropylcellulose) (HPC) 98 % of control | dose: 0.75 mg/kg/injection, schedule: Q04DX003 (ip), vehicle: saline with Tween-80 96 % of control | dose: 1.5 mg/kg/injection, schedule: Q01DX009 (ip), vehicle: Klucel (hydroxypropylcellulose) (HPC) 95 % of control | dose: 1.5 mg/kg/injection, schedule: Q04DX003 (ip), vehicle: saline with Tween-80 95 % of control | dose: 3.0 mg/kg/injection, schedule: Q01DX009 (ip), vehicle: Klucel (hydroxypropylcellulose) (HPC) 106 % of control | dose: 3.0 mg/kg/injection, schedule: Q04DX003 (ip), vehicle: saline with Tween-80 101 % of control | dose: 6.0 mg/kg/injection, schedule: Q01DX009 (ip), vehicle: Klucel (hydroxypropylcellulose) (HPC) 102 % of control | dose: 6.0 mg/kg/injection, schedule: Q04DX003 (ip), vehicle: saline with Tween-80 91 % of control | dose: 12.0 mg/kg/injection, schedule: Q04DX003 (ip), vehicle: saline with Tween-80 101 % of control | dose: 12.5 mg/kg/injection, schedule: Q04DX002 (ip), vehicle: Klucel (hydroxypropylcellulose) (HPC) 103 % of control | dose: 25.0 mg/kg/injection, schedule: Q04DX002 (ip), vehicle: Klucel (hydroxypropylcellulose) (HPC) 97 % of control
